Data taken from patent publication US3970651A, “Crystalline cephalosporin derivative” (priority 1974, dated 1976).
Values after ≈ are worked out from the molar mass of the structure shown. Values joined by “and” are separate entries in the source; they are usually repeats but may differ in a detail not shown here. Identical values can stand only once. Like-named read-outs stand apart in the source and are kept apart here.

Key:
[1] = test system: S. aureus 209P (A.T.C.C. 6538P); experiment: Bioassay, turbidometric; type: cell-based
[2] = Water solubility; type: physicochemical; details: in water at 23° C.
[3] = in vivo; details: dog, po, 30 mg/kg
Description: Three beagle dogs (mean weight of 8.2 ± 0.4 kg.) were administered 200 mesh 7-[D-α-amino-α-(p-hydroxyphenyl)acetamido]-3-(1,2,3-triazol-5-ylthiomethyl)-3-cephem-4-carboxylic acid propylene glycolate (bioassay 820 mcg./mgm.) orally at doses of 30 mg. of activity/kg. in hard gelatin capsules. All doses and concentrations reported herein are in terms of the amphoteric material and were corrected for differences in biopotency.

[4] = test system: bacterial infections; experiment: In vitro antibacterial potency and spectrum; type: cell-based
[5] = test system: bacterial infections; experiment: In vivo antibacterial activity
[6] = for Behaviour when suspended in water: aqueous suspension
[7] = Heat stability / loss of bioactivity of the solid on storage at elevated temperatures
[8] = allowance made for inert propylene glycol

Which bioassay ([1]; 200 mesh lot dosed to dogs) does the source give for `N[C@@H](C(=O)NC1C(=O)N2C(C(=O)O)=C(CSc3c[nH]nn3)CSC12)c1ccc(O)cc1` (stereo partly drawn) [BL-S640 propylene glycolate, 7-[D-α-amino-α-(p-hydroxyphenyl)acetamido]-3-(1,2,3-triazol-5-ylthiomethyl)-3-cephem-4-carboxylic acid 1,2-propylene glycolate] here?
Its bioassay is 820 mcg./mgm.

What about the assigned potency ([1]; bioassay standard, 16.7% 1,2-propylene glycol, 0.3% water) of the same compound?
Its assigned potency is 820 mcg./mgm.

And the “potency of composite blend” value ([1]; capsule blend)?
The value was 834 µg/mg.

And the Bio-assay ([1]; listed as 1,2-propylene glycolate)?
The Bio-assay was 800 to 850 µg/mg.

What about the Bio-assay ([1]; listed as propylene glycolate) of the same compound?
The Bio-assay was 750 to 790 µg/mg and 800 to 860 µg/mg.

And the solubility [2]?
Its solubility is about 10000 µg/mL (≈ 21.6 mM).

And the concentration at 0.08 h [3]?
Its concentration at 0.08 h is 40 ng/mL.

And the concentration at 0.25 h [3]?
The concentration at 0.25 h was 300 ± 100 ng/mL.

And the concentration at 0.5 h [3]?
The concentration at 0.5 h was 5900 ± 2000 ng/mL.

What about the concentration at 1.05 h [3] of the same compound?
The concentration at 1.05 h was 8400 ng/mL.

And the concentration at 1.5 h [3]?
Its concentration at 1.5 h is 17700 ± 2000 ng/mL.

What about the concentration at 2 h [3] of the same compound?
The concentration at 2 h was 18700 ± 900 ng/mL.

And the concentration at 3 h [3]?
Its concentration at 3 h is 13700 ± 1200 ng/mL.

What about the concentration at 4 h [3] of the same compound?
Its concentration at 4 h is 8400 ± 1300 ng/mL.

What about the concentration at 6 h [3] of the same compound?
Its concentration at 6 h is 3200 ± 400 ng/mL.

What about the concentration at 8 h [3] of the same compound?
The concentration at 8 h was 1600 ± 200 ng/mL.

And the half-life [3]?
Its half-life is about 1.36 h.

And the “In vitro potency and spectrum of activity” value ([4]; in vitro, versus Ser. No. 318,340)?
Its value is “exhibits the potency and spectrum of activity reported in the above-referenced application Ser. No. 318,340 in a qualitative sense and usually also quantitatively except when it is possible to observe slightly less activity due to its content of the biologically inert propylene glycol”.

And the In vivo results ([5]; dosed on a potency basis in terms of the zwitterion)?
The In vivo results was “substantially the same”.

And the “Behaviour when suspended in water” value ([6]; listed as propylene glycolate)?
Its value is “does not lose biological activity, lose crystallinity, suspend unevenly, oil, clump, settle out or become tacky”.

And the “Loss of bioactivity on storage as a solid” value ([7]; 56°C., one month, usual stringent test conditions)?
The value was “no more than ten”.

And the degraded at 24 h ([7]; solid)?
Its degraded at 24 h is under 6%.

And the degraded at 48 h ([7]; solid)?
Its degraded at 48 h is under 12%.

And the degraded at 720 h ([7]; solid)?
The degraded at 720 h was under 10%.

Which Bio-assay [1] does the source give for `C=CC.N[C@@H](C(=O)NC1C(=O)N2C(C(=O)O)=C(CSc3cnn[nH]3)CS[C@H]12)c1ccc(O)cc1.O=C(O)CO` (stereo partly drawn) [BL-S640 mono-propylene glycolate, 7-[D-α-amino-α-(p-hydroxyphenyl)acetamido]-3-(1,2,3-triazol-5-ylthiomethyl)-3-cephem-4-carboxylic acid mono-propylene glycolate] here?
The Bio-assay was 865 µg/mg.

What about the calculated potency ([1]; 15.6% 1,2-propylene glycol, 0.3% water) of the same compound?
Its calculated potency is 865 µg/mg.

And the “Potency and spectrum in vivo and in vitro versus the zwitterion product” value [4, 8]?
Its value is “substantially the same potency and spectrum in vivo and in vitro”.

And the “Potency and spectrum in vivo versus the zwitterion product” value [5, 8]?
The value was “substantially the same potency and spectrum in vivo and in vitro”.

And the “Behaviour when suspended in water” value [6]?
Its value is “does not lose biological activity or crystallinity and does not oil, suspend unevenly, clump, settle out or become tacky”.

Which Bio-assay [1] does the source give for `CO.N[C@@H](C(=O)NC1C(=O)N2C(C(=O)O)=C(CSc3cnn[nH]3)CS[C@H]12)c1ccc(O)cc1` (stereo partly drawn) [BL-S640 methanolate, 7-[D-α-amino-α-(p-hydroxyphenyl)acetamido]-3-(1,2,3-triazol-5-ylthiomethyl)-3-cephem-4-carboxylic acid Methanolate] here?
Its Bio-assay is 850 to 900 µg/mg.

With `N[C@@H](C(=O)NC1C(=O)N2C(C(=O)O)=C(CSc3c[nH]nn3)CSC12)c1ccc(O)cc1` (stereo partly drawn) [ethanolate] as the compound, how does the “Behaviour when suspended in water” value [6] read?
Its value is “gradually lost its ethanol to change into a solid tacky form which lost crystallinity, did not suspend evenly and gummed in time”.

With `N[C@@H](C(=O)NC1C(=O)N2C(C(=O)O)=C(CSc3c[nH]nn3)CSC12)c1ccc(O)cc1` (stereo partly drawn) [BL-S640 mono-methanolate] as the compound, how does the Bio-assay [1] read?
The Bio-assay was 930-960 units/mg.

Which “Degradation in water at alkaline pH” value ([6]; pH 7) does the source give for `N[C@@H](C(=O)NC1C(=O)N2C(C(=O)O)=C(CSc3cnn[nH]3)CS[C@H]12)c1ccc(O)cc1` (stereo partly drawn) [BL-S640, 7-[D-α-amino-α-(p-hydroxyphenyl)acetamido]-3-(1,2,3-triazol-5-ylthiomethyl)-3-cephem-4-carboxylic acid] here?
The value was “degrades very rapidly, as by loss of the thiol moiety”.
